Assay results reported in patent US8178089B2, “Neuronal progenitors from feeder-free human embryonic stem cell culture” (The University of Georgia Research Foundation, Inc, priority 2004, dated 2012).

Key:
[1] = system: voltage-gated sodium channels; experiment: Intracellular calcium measurement (Fluo-3AM, FLIPR) in human neuroprogenitor cells; assay type: cell-based; conditions: 30 μM veratridine, 96-well plates
Description: In this experiment, human neuroprogenitor cells were seeded in 96-well plates and incubated with dye loading medium containing 2 μM Fluo-3AM and 0.04% pluronic acid in Locke's buffer. After 45 minutes of incubation, the neuroprogenitor cells were gently washed three times in fresh Locke's buffer. Following the final wash, 150 μl of Locke's buffer was added to each well and the plate was transferred to the FLIPR® incubation chamber (Molecular Devices). […] These cells can therefore be used to determine the effect of an antagonist or agonist on calcium uptake or whether an agent is a likely antagonist or agonist of calcium uptake.

[2] = system: NEP cells; experiment: Proliferation of subcultured NEP cells (nuclei count by flow cytometry, day 14); assay type: cell-based, human; conditions: for proliferation rate: long term cultured NEP cells (6 mo)
Description: (§1) Effect of LIF and bFGF on subcultured NEP cells. Two groups of cultured NEP cells, one less than 1 month (<1 mo) and the other approximately 6 months (6 mo) in NB27 (described in previous section), were dissociated by 0.05% trypsin to obtain a single-cell suspension, and 50,000 cells/cm^2 were plated in one of the subculture media on polyornithine and laminin-coated dishes. Two concentrations of two growth factors (LIF; 0 or 10 ng/ml and bFGF; 0 or 20 ng/ml) in NB27, were applied to cells. Cells were harvested from each group and nuclei were counted by flow cytometry on days 1 and 14. Plating efficiency rate was calculated as the ratio of cells harvested to cells plated on day 1. Proliferation was measured on day 14. For each replicate, counted nuclei from the four treatment groups were added to obtain an overall total. The total cell number within each group was then divided by the overall total cell number and expressed as a percent.

[3] = system: NEP cells; experiment: Plating efficiency of subcultured NEP cells (day 1); assay type: cell-based, human; conditions: for plating efficiency versus control: NEP after 6 months in LIF supplemented culture; for effect on plating efficiency / plating efficiency: early NEP cells (1 mo)
Description: as §1

[4] = system: OLIG2 expression; experiment: OLIG2 gene expression by real time RT-PCR in NEP; assay type: cell-based; conditions: human NEP, FIG. 2A
Text: The motor neuron progenitor gene, OLIG2, is expressed early in motor neuron induction. Novitch, et al., Neuron, 31(5), 773-89 (2001). […] Subsequently, we examined expression of the motor neuron gene HLBX9 to investigate the effect of Shh and RA on motor neuron differentiation. Based on the OLIG2 results, bFGF was included at the time of RA or RA plus Shh exposure. The combination of RA and bFGF produced a 2·20 fold increased in HLBX9 expression level, and combining bFGF, Shh and RA increased HLBX9 expression 8·49 fold higher than bFGF alone in human NEP (FIG. 2B).

Compound	elevation of intracellular [Ca2+] [1]	effect on proliferation of NEP cells ([2]; early NEP cells (1 mo), in presence or absence of bFGF)	proliferation rate [2]	plating efficiency versus control [3]	effect on plating efficiency [3]	plating efficiency [3]	OLIG2 expression change [4]	cell proliferation (group cell number as percent of overall total) ([2]; early NEP cells (1 mo), day 14, bFGF 20 ng/ml, control 8.9%)
COc1ccc(C(=O)O[C@H]2CC[C@@]3(C)[C@@H]4CC[C@H]5[C@]6(O)C[C@H](O)[C@@]7(O)[C@@H](CN8C[C@@H](C)CC[C@H]8[C@@]7(C)O)[C@]6(O)C[C@@]53O[C@]24O)cc1OC [veratridine]	~145 % of control	–	–	–	–	–	–	–
LIF: Leukemia Inhibitory Factor, growth factor	–	no effect	increased proliferation rate	higher plating efficiency than the control	no effect	about 50%	–	–
bFGF: basic fibroblast growth factor, growth factor	–	–	increased proliferation rate	higher plating efficiency than the control	no effect	about 50%	significantly increased	38.5%
